From patent US20260124214A1, “HETEROCYCLIC COMPOUNDS FOR USE IN THE TREATMENT OF CANCER” (ARTIOS PHARMA LIMITED, priority 2021, published 2026)
Counter-ions that a name gives are not always drawn.

Biological target: T1, Human Polθ polymerase domain (aa1820-2590) (Homo sapiens, UniProt O75417)
T1 construct: Human Polθ polymerase domain (aa1820-2590) was expressed in E. Coli; made in house; host or cells: E. coli
T1 sequence (O75417 1820-2590): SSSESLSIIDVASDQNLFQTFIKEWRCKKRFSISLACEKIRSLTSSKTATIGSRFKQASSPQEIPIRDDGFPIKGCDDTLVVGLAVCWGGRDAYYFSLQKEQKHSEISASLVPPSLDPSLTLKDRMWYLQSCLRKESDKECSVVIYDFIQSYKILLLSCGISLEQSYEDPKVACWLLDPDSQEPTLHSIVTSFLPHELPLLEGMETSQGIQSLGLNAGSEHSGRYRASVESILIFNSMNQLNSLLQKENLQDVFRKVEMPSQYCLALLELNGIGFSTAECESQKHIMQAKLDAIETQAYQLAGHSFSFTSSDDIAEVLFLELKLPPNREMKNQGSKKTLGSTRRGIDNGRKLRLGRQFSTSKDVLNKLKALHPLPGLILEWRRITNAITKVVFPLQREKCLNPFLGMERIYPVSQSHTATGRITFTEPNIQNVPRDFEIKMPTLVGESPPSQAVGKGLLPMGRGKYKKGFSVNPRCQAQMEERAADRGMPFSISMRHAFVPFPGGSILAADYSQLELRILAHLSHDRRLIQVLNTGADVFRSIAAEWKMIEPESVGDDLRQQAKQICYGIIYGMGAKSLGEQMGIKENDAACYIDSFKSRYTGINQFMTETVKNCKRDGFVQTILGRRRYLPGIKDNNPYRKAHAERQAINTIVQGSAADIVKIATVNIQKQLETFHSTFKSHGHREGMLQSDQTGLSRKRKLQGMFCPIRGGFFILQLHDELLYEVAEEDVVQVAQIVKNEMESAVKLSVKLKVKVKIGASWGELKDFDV
Assay: Polθ Polymerase Domain WT KI Assay (PicoGreen)
Assay type: biochemical
Settings: 100 nM DNA substrate, 0.156 nM Polθ, initial rates vs inhibitor concentration
Method in brief: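 E. coli-expressed human Polθ polymerase domain (aa1820-2590) on annealed DNA II Short/Long primer-template (1.2:1), in 25 mM Tris pH 7.5, NaCl, 5% glycerol, 0.01% Triton X-100, 0.1 mg/ml BSA, 1 mM DTT, 1% DMSO. EDTA-quenched timepoints to 180 min, PicoGreen fluorescence. Initial rates vs inhibitor concentration fitted four-parameter for KI.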

| Ki | Compound |
| --- | --- |
| 1.91 nM | Cc1cc(C(F)(F)F)cc(N2C(=O)C[C@@H]3CN(C[C@@H]4CCN(C)[C@H](C)C4)c4c(Cl)cccc4N(C)C(=O)[C@H]32)n1 (single isomer, unassigned) [Example 126b] |
| 6.14 nM | Cc1cc(C(F)(F)F)cc(N2C(=O)C[C@@H]3CN(CC(O)CN(C)C)c4c(Cl)cccc4N(C)C(=O)[C@H]32)n1 (single isomer, unassigned) [Example 132b] |
| 1.28 nM | Cc1cc(C(F)(F)F)cc(N2C(=O)C[C@@H]3CN(C[C@H]4COCCN4C)c4c(Cl)cccc4N(C)C(=O)[C@H]32)n1 (racemic) [Example 119a, (3aR,11aS)-6-Chloro-10-methyl-1-(6-methyl-4-(trifluoromethyl)pyridin-2-yl)-5-(((S/R)-4-methylmorpholin-3-yl)methyl)-1,3a,4,5,10,11a-hexahydro-2H-benzo[b]pyrrolo[2,3-f][1,4]diazocine-2,11(3H)-dione] |
| 1.45 nM | Cc1cc(C(F)(F)F)cc(N2C(=O)C[C@@H]3CN(Cc4cn5c(n4)C(C)N(C)CC5)c4c(Cl)cccc4N(C)C(=O)[C@H]32)n1 (single isomer, unassigned) [Example 96a] |
| 1.92 nM | Cc1cc(C(F)(F)F)cc(N2C(=O)C[C@@H]3CN(CC(C)O)c4c(Cl)cccc4N(C)C(=O)[C@H]32)n1 (single isomer, unassigned) [Example 131b] |
| 1.47 nM | Cc1cc(C(F)(F)F)cc(N2C(=O)C[C@@H]3CN(C[C@@H](O)CN4CCOCC4)c4c(Cl)cccc4N(C)C(=O)[C@H]32)n1 (racemic) [Example 133a, (3aR,11aS)-6-chloro-5-((S/R)-2-hydroxy-3-morpholinopropyl)-10-methyl-1-(6-methyl-4-(trifluoromethyl)pyridin-2-yl)-1,3a,4,5,10,11a-hexahydro-2H-benzo[b]pyrrolo[2,3-f][1,4]diazocine-2,11(3H)-dione] |
| 6.04 nM | Cc1cc(C(F)(F)F)cc(N2C(=O)C[C@@H]3CN(C[C@@H]4CCCN4C)c4c(Cl)cccc4N(C)C(=O)[C@H]32)n1 (racemic) [Example 118b, (3aR,11aS)-6-Chloro-10-methyl-1-(6-methyl-4-(trifluoromethyl)pyridin-2-yl)-5-(((S/R)-1-methylpyrrolidin-2-yl)methyl)-1,3a,4,5,10,11a-hexahydro-2H-benzo[b]pyrrolo[2,3-f][1,4]diazocine-2,11(3H)-dione] |

The next lines start with the compound.

| Compound | Ki |
| --- | --- |
| Cc1cc(C(F)(F)F)cc(N2C(=O)C[C@@H]3CN(CCN4CCN[C@H](C)C4)c4c(Cl)cccc4N(C)C(=O)[C@H]32)n1 [Example 9, (3aR,11aS)-6-Chloro-10-methyl-1-(6-methyl-4-(trifluoromethyl)pyridin-2-yl)-5-(2-((R)-3-methylpiperazin-1-yl)ethyl)-1,3a,4,5,10,11a-hexahydro-2H-benzo[b]pyrrolo[2,3-f][1,4]diazocine-2,11(3H)-dione] | 1.4 nM |
| Cc1cc(C(F)(F)F)cc(N2C(=O)C[C@@H]3CN(CCN4CCC(C#N)CC4)c4c(C)cccc4N(C)C(=O)[C@H]32)n1 [Example 69, 1-(2-((3aR,11aS)-6,10-Dimethyl-1-(6-methyl-4-(trifluoromethyl)pyridin-2-yl)-2,11-dioxo-1,2,3,3a,4,10,11,11a-octahydro-5H-benzo[b]pyrrolo[2,3-f][1,4]diazocin-5-yl)ethyl)piperidine-4-carbonitrile] | 1.12 nM |
| Cc1cc(C(F)(F)F)cc(N2C(=O)C[C@@H]3CN(CC4CCNCC4)c4c(Cl)cccc4N(C)C(=O)[C@H]32)n1 [Example 78, (3aR,11aS)-6-Chloro-10-methyl-1-(6-methyl-4-(trifluoromethyl)pyridin-2-yl)-5-(piperidin-4-ylmethyl)-1,3a,4,5,10,11a-hexahydro-2H-benzo[b]pyrrolo[2,3-f][1,4]diazocine-2,11(3H)-dione] | 1.1 nM |
| Cc1cc(C(F)(F)F)cc(N2C(=O)C[C@@H]3CNc4c(F)cccc4N(C)C(=O)[C@H]32)n1 [Example 1, (3aR,11aS)-6-Fluoro-10-methyl-1-(6-methyl-4-(trifluoromethyl)pyridin-2-yl)-1,3a,4,5,10,11a-hexahydro-2H-benzo[b]pyrrolo[2,3-f][1,4]diazocine-2,11(3H)-dione] | 15.3 nM |
| Cc1cc(C(F)(F)F)cc(N2C(=O)C[C@@H]3CN(CCN4CCN(S(C)(=O)=O)CC4)c4c(C)cccc4N(C)C(=O)[C@H]32)n1 [Example 67, (3aR,11aS)-6,10-Dimethyl-1-(6-methyl-4-(trifluoromethyl)pyridin-2-yl)-5-(2-(4-(methylsulfonyl)piperazin-1-yl)ethyl)-1,3a,4,5,10,11a-hexahydro-2H-benzo[b]pyrrolo[2,3-f][1,4]diazocine-2,11(3H)-dione] | 0.598 nM |
| Cc1cc(C(F)(F)F)cc(N2C(=O)C[C@@H]3CN(CCN4CCC(F)(F)CC4)c4c(Cl)cccc4N(C)C(=O)[C@H]32)n1 [Example 22, (3aR,11aS)-6-Chloro-5-(2-(4,4-difluoropiperidin-1-yl)ethyl)-10-methyl-1-(6-methyl-4-(trifluoromethyl)pyridin-2-yl)-1,3a,4,5,10,11a-hexahydro-2H-benzo[b]pyrrolo[2,3-f][1,4]diazocine-2,11(3H)-dione] | 1.79 nM |
| Cc1cc(C(F)(F)F)cc(N2C(=O)C[C@@H]3CN(CCCN4CCOCC4)c4c(Cl)cccc4N(C)C(=O)[C@H]32)n1 [Example 136, (3aR,11aS)-6-Chloro-10-methyl-1-(6-methyl-4-(trifluoromethyl)pyridin-2-yl)-5-(3-morpholinopropyl)-1,3a,4,5,10,11a-hexahydro-2H-benzo[b]pyrrolo[2,3-f][1,4]diazocine-2,11(3H)-dione hydrochloride] | 0.786 nM |
| Cc1cc(C(F)(F)F)cc(N2C(=O)C[C@@H]3CN(CCN4CC[C@H](C#N)C4)c4c(C)cccc4N(C)C(=O)[C@H]32)n1 [Example 70, (S)-1-(2-((3aR,11aS)-6,10-Dimethyl-1-(6-methyl-4-(trifluoromethyl)pyridin-2-yl)-2,11-dioxo-1,2,3,3a,4,10,11,11a-octahydro-5H-benzo[b]pyrrolo[2,3-f][1,4]diazocin-5-yl)ethyl)pyrrolidine-3-carbonitrile] | 0.692 nM |
| Cc1cc(C(F)(F)F)cc(N2C(=O)C[C@@H]3CN(CCN4CCNCC4)c4c(Cl)cccc4N(C)C(=O)[C@H]32)n1 [Example 19, (3aR,11aS)-6-Chloro-10-methyl-1-(6-methyl-4-(trifluoromethyl)pyridin-2-yl)-5-(2-(piperazin-1-yl)ethyl)-1,3a,4,5,10,11a-hexahydro-2H-benzo[b]pyrrolo[2,3-f][1,4]diazocine-2,11(3H)-dione] | 1.87 nM |
| C=CCN1C[C@H]2CC(=O)N(c3cc(C(F)(F)F)cc(C)n3)[C@@H]2C(=O)N(C)c2cccc(Cl)c21 [Example 5, (3aR,11aS)-5-Allyl-6-chloro-10-methyl-1-(6-methyl-4-(trifluoromethyl)pyridin-2-yl)-1,3a,4,5,10,11a-hexahydro-2H-benzo[b]pyrrolo[2,3-f][1,4]diazocine-2,11(3H)-dione] | 1.49 nM |
| Cc1cc(C(F)(F)F)cc(N2C(=O)C[C@@H]3CN(CCN4CC[C@H](O)C4)c4c(Cl)cccc4N(C)C(=O)[C@H]32)n1 [Example 32, (3aR,11aS)-6-Chloro-5-(2-((S)-3-hydroxypyrrolidin-1-yl)ethyl)-10-methyl-1-(6-methyl-4-(trifluoromethyl)pyridin-2-yl)-1,3a,4,5,10,11a-hexahydro-2H-benzo[b]pyrrolo[2,3-f][1,4]diazocine-2,11(3H)-dione] | 6.78 nM |
| Cc1cc(C(F)(F)F)cc(N2C(=O)C[C@@H]3CN(CCN4CC[C@@H](C#N)C4)c4c(C)cccc4N(C)C(=O)[C@H]32)n1 [Example 71, (R)-1-(2-((3aR,11aS)-6,10-Dimethyl-1-(6-methyl-4-(trifluoromethyl)pyridin-2-yl)-2,11-dioxo-1,2,3,3a,4,10,11,11a-octahydro-5H-benzo[b]pyrrolo[2,3-f][1,4]diazocin-5-yl)ethyl)pyrrolidine-3-carbonitrile] | 1.15 nM |
| Cc1cc(C(F)(F)F)cc(N2C(=O)C[C@@H]3CN(Cc4cn5c(n4)CNCC5)c4c(C)cccc4N(C)C(=O)[C@H]32)n1 [Example 80, (3aR,11aS)-6,10-Dimethyl-1-(6-methyl-4-(trifluoromethyl)pyridin-2-yl)-5-((5,6,7,8-tetrahydroimidazo[1,2-a]pyrazin-2-yl)methyl)-1,3a,4,5,10,11a-hexahydro-2H-benzo[b]pyrrolo[2,3-f][1,4]diazocine-2,11(3H)-dione] | 0.186 nM |
| Cc1cc(C(F)(F)F)cc(N2C(=O)C[C@@H]3CN(CCN4CCN(C)C[C@@H]4CO)c4c(C)cccc4N(C)C(=O)[C@H]32)n1 [Example 65, (3aR,11aS)-5-(2-((R)-2-(Hydroxymethyl)-4-methylpiperazin-1-yl)ethyl)-6,10-dimethyl-1-(6-methyl-4-(trifluoromethyl)pyridin-2-yl)-1,3a,4,5,10,11a-hexahydro-2H-benzo[b]pyrrolo[2,3-f][1,4]diazocine-2,11(3H)-dione dihydrochloride] | 1.38 nM |
